According to article PMC6961116, “Scaffold-hopping identifies furano[2,3-d]pyrimidine amides as potent Notum inhibitors” (Bioorganic & Medicinal Chemistry Letters, 2020):
Read-outs that look alike come from different tables or passages of the source.

Experiments:
Notum(81–451 Cys330Ser) [1] = biological target: T1, Notum(81–451 Cys330Ser) (Homo sapiens, UniProt Q6P988, C330S); conditions: thieno[3,2-d]pyrimidine amides 4; OPTS assay; geometric mean ± s.d.; cited from earlier work
T1 sequence (Q6P988 81-451 C330S): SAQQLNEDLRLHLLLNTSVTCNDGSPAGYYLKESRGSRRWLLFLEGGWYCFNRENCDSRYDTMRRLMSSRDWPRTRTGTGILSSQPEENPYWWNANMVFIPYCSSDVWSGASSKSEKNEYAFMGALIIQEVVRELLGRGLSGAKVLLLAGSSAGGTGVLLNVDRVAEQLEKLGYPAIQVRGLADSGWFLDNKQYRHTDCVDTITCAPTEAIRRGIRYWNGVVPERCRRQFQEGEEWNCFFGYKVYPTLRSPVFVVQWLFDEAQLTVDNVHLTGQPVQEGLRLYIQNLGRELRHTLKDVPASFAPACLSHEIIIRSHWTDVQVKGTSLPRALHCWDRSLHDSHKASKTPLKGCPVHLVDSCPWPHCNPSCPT

MDCK-MDR1 monolayer = conditions: amides 4, cited from earlier work; for MDCK-MDR1 AB Papp: A to B direction; for MDCK-MDR1 BA Papp: B to A direction
Notum(81–451 Cys330Ser) [2] = biological target: T1, Notum(81–451 Cys330Ser); experiment: Notum biochemical OPTS assay (carboxylesterase activity); conditions: for IC50: OPTS substrate, 1 h incubation, geometric mean ± s.d.
[3] = Metabolic stability in mouse liver microsomes (MLM); format: in vitro ADME; conditions: mouse liver microsomes
P-gp (MDR1) = experiment: MDCK-MDR1 cell permeability and efflux; format: in vitro ADME; conditions: dog; for efflux ratio: MDCK-MDR1, read-out: MDCK-MDR1 efflux ratio (ER)
[4] = Hydrolytic stability in citrate buffer; format: physicochemical; conditions: citrate buffer 0.1 M, pH 4, up to 24 h, UPLC-MS
Notum [5] = biological target: T2, Notum (Homo sapiens, UniProt Q6P988, C330S); experiment: Notum enzymatic stability (biochemical assay without OPTS substrate); conditions: up to 72 h
T2 sequence (Q6P988 81-451 C330S): T1 sequence (Q6P988 81-451 C330S)

Notum [6] = biological target: T3, Notum (Homo sapiens, UniProt Q6P988); experiment: Notum TCF/LEF reporter (Luciferase) HEK293 cell assay
T3 sequence (Q6P988 20-496): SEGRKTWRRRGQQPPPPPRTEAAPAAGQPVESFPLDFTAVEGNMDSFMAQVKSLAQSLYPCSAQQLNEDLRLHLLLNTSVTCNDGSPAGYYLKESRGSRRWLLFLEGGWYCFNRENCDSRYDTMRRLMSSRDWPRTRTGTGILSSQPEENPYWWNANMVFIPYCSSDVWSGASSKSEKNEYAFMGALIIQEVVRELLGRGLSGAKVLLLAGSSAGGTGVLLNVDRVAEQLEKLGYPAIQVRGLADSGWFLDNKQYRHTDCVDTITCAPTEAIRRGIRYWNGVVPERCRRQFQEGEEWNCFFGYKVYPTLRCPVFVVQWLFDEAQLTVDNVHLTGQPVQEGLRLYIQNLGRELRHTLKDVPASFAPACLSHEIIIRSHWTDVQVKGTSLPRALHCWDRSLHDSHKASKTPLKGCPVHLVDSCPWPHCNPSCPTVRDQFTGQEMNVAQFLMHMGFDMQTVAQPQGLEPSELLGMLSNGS
Description: Selected compounds were screened for inhibition of Notum activity in a Wnt/β-catenin signaling pathway TCF/LEF Reporter (Luciferase) HEK293 cell line and Notum occupancy in a FP-biotin competition assay.[15], [18]

[7] = MDCK-MDR1, A to B direction, read-out: MDCK-MDR1 AB Papp
[8] = MDCK-MDR1, B to A direction, read-out: MDCK-MDR1 BA Papp
[9] = read-out: Notum EC50 (TCF-LEF), rWNT3a 100 ng/mL, Notum 500 ng/mL, geometric mean ± s.d., n = 3–4

IC50 (Notum(81–451 Cys330Ser) [2]) | MLM Cli [3] | Papp (P-gp (MDR1); [7]) | Papp (P-gp (MDR1); [8]) | efflux ratio (P-gp (MDR1)) | Compound | further results
15 ± 6 nM | 360 µL/min/mg | – | – | – | Cc1sc2ncnc(SCC(=O)N(C)C)c2c1Cl [Compound 5a] | –
220 ± 12 nM | – | – | – | – | Cc1sc2ncnc(SCC(=O)N3CCCCC3)c2c1Cl [Compound 5b] | –
69 ± 10 nM | – | – | – | – | Cc1sc2ncnc(SCC(=O)N3CCOCC3)c2c1Cl [Compound 5c] | –
5.8 ± 4 nM | 19 µL/min/mg | 12 ×10⁻⁶ cm/s | 66 ×10⁻⁶ cm/s | 5.5 | Cc1sc2ncnc(SCC(=O)N3CCNC(=O)C3)c2c1Cl [Compound 5d] | –
2.7 ± 0.5 nM | 65 µL/min/mg | 14 ×10⁻⁶ cm/s | 82 ×10⁻⁶ cm/s | 5.9 | Cc1sc2ncnc(SCC(=O)N3CNC(=O)C3)c2c1Cl [Compound 5e] | –
3.2 ± 0.1 nM | 13 µL/min/mg | 0.6 ×10⁻⁶ cm/s | 56 ×10⁻⁶ cm/s | 93 | Cc1sc2ncnc(SCC(=O)N3CCn4cnnc4C3)c2c1Cl [Compound 5f] | Hydrolytic stability [4]: only parent was detected; Notum enzymatic stability (Notum [5]): only parent was detected
6.2 ± 0.5 nM | 33 µL/min/mg | 23 ×10⁻⁶ cm/s | 62 ×10⁻⁶ cm/s | 2.7 | Cc1sc2ncnc(SCC(=O)N3CCN(C)C(=O)C3)c2c1Cl [Compound 5g] | –
4.2 ± 0.4 nM | 100 µL/min/mg | 1.1 ×10⁻⁶ cm/s | 37 ×10⁻⁶ cm/s | 34 | CCN1CCN(C(=O)CSc2ncnc3sc(C)c(Cl)c23)CC1=O [Compound 5h] | –
33 ± 5 nM | – | – | – | – | Cc1sc2ncnc(SCC(=O)N3CC(=O)NC(C)C3)c2c1Cl (stereo not drawn) [Compound 5i] | –
450 ± 200 nM | – | – | – | – | Cc1sc2ncnc(SCC(=O)N3CC(=O)NC(C)(C)C3)c2c1Cl [Compound 5j] | –
20 ± 4 nM | 63 µL/min/mg | 7 ×10⁻⁶ cm/s | 51 ×10⁻⁶ cm/s | 7.3 | Cc1sc2ncnc(SCC(=O)N3CC(=O)N4CCCC4C3)c2c1Cl (stereo not drawn) [Compound 5k] | –
2.6 ± 0.1 nM | 43 µL/min/mg | 35 ×10⁻⁶ cm/s | 51 ×10⁻⁶ cm/s | 1.5 | CCN1CN(C(=O)CSc2ncnc3sc(C)c(Cl)c23)CC1=O [Compound 5m] | –
3.8 ± 1.3 nM | 49 µL/min/mg | – | – | – | Cc1sc2ncnc(SCC(=O)N3CC(=O)N(C4CC4)C3)c2c1Cl [Compound 5n] | –
3.9 ± 0.4 nM | 140 µL/min/mg | – | – | – | Cc1sc2ncnc(SCC(=O)N3CC(=O)N(CC(F)(F)F)C3)c2c1Cl [Compound 5o] | –
16 ± 2 nM | 15 µL/min/mg | 0.5 ×10⁻⁶ cm/s | 51 ×10⁻⁶ cm/s | > 100 | Cc1sc2ncnc(SCC(=O)N3CCn4c(C)nnc4C3)c2c1Cl [Compound 5p] | –
23 ± 5 nM | 38 µL/min/mg | 0.8 ×10⁻⁶ cm/s | 65 ×10⁻⁶ cm/s | 81 | CCc1nnc2n1CCN(C(=O)CSc1ncnc3sc(C)c(Cl)c13)C2 [Compound 5q] | –
27 ± 3 nM | 53 µL/min/mg | 0.8 ×10⁻⁶ cm/s | 78 ×10⁻⁶ cm/s | 97 | Cc1sc2ncnc(SCC(=O)N3CCn4c(nnc4C4CC4)C3)c2c1Cl [Compound 5r] | –
38 ± 3 nM | 93 µL/min/mg | 15 ×10⁻⁶ cm/s | 85 ×10⁻⁶ cm/s | 5.7 | Cc1sc2ncnc(SCC(=O)N3CCn4c(nnc4C(F)(F)F)C3)c2c1Cl [Compound 5s] | –
15 ± 3 nM | 53 µL/min/mg | 19 ×10⁻⁶ cm/s | 49 ×10⁻⁶ cm/s | 2.6 | Cc1sc2ncnc(SCC(=O)N3CCn4ncnc4C3)c2c1Cl [Compound 5t] | –
11 ± 6 nM | 37 µL/min/mg | 17 ×10⁻⁶ cm/s | 44 ×10⁻⁶ cm/s | 2.6 | Cc1nc2n(n1)CCN(C(=O)CSc1ncnc3sc(C)c(Cl)c13)C2 [Compound 5u] | –
18 ± 5 nM | 140 µL/min/mg | 15 ×10⁻⁶ cm/s | 27 ×10⁻⁶ cm/s | 1.8 | Cc1sc2ncnc(SCC(=O)N3CCn4nc(C(F)(F)F)nc4C3)c2c1Cl [Compound 5v] | –

Second part, the molecule before the results:

Compound | IC50 (Notum(81–451 Cys330Ser) [2]) | MLM Cli [3] | Papp (P-gp (MDR1); [7]) | Papp (P-gp (MDR1); [8]) | efflux ratio (P-gp (MDR1)) | further results
O=C1CN(C(=O)CSc2ncnc3c(C4CC4)c(Cl)sc23)CCN1 [Compound 4d] | – | – | – | – | – | IC50 (Notum(81–451 Cys330Ser) [1]): < 10 nM; MDCK-MDR1 AB Papp (MDCK-MDR1 monolayer): 7.9e-06 cm/s; MDCK-MDR1 BA Papp (MDCK-MDR1 monolayer): 6.5e-05 cm/s
O=C1CN(C(=O)CSc2ncnc3c(C4CC4)c(Cl)sc23)CN1 [Compound 4e] | – | – | – | – | – | MDCK-MDR1 AB Papp (MDCK-MDR1 monolayer): 3.8e-06 cm/s; MDCK-MDR1 BA Papp (MDCK-MDR1 monolayer): 1.4e-05 cm/s
O=C(CSc1ncnc2c(C3CC3)c(Cl)sc12)N1CCn2cnnc2C1 [Compound 4f] | – | – | – | – | – | MDCK-MDR1 AB Papp (MDCK-MDR1 monolayer): 9.5e-07 cm/s; MDCK-MDR1 BA Papp (MDCK-MDR1 monolayer): 9.3e-05 cm/s
Cc1cc2c(SCC(=O)O)ncnc2s1 [Compound 6] | 790 ± 70 nM | – | – | – | – | –
Cc1nc(SCC(=O)O)c2c(C)c(C)sc2n1 [Compound 8] | 2100 nM | – | – | – | – | –
Cc1c(C(F)(F)F)sc2ncnc(SCC(=O)O)c12 [Compound 9] | 1 ± 0.4 nM | – | – | – | – | –
Cc1sc2ncnc(SCC(=O)O)c2c1C(F)(F)F [Compound 10] | 3.9 ± 0.7 nM | – | – | – | – | –
Cc1c(C#N)sc2ncnc(SCC(=O)O)c12 [Compound 11, 2-((6-cyano-5-methylthieno[2,3-d]pyrimidin-4-yl)thio)acetic acid] | 25 ± 4 nM | – | – | – | – | –
N#Cc1sc2c(SCC(=O)O)ncnc2c1C1CC1 [Compound 12] | 8.1 nM | – | – | – | – | –
O=C(O)CSc1ncnc2[nH]ccc12 [Compound 13] | 77000 nM | – | – | – | – | –
O=C(O)CSc1ncnc2[nH]cc(Cl)c12 [Compound 14] | 20000 nM | – | – | – | – | –
Cn1ccc2c(SCC(=O)O)ncnc21 [Compound 15, 2-((7-methyl-7H-pyrrolo[2,3-d]pyrimidin-4-yl)thio)acetic acid] | 15000 nM | – | – | – | – | –
O=C(O)CSc1ncnc2c1ccn2Cc1ccccc1 [Compound 16, 2-((7-benzyl-7H-pyrrolo[2,3-d]pyrimidin-4-yl)thio)acetic acid] | 50000 nM | – | – | – | – | –
Cc1nn(C)c2ncnc(SCC(=O)O)c12 [Compound 17] | 1100 nM | – | – | – | – | fold weaker Notum inhibition than 1 (Notum(81–451 Cys330Ser) [2]; relative to 1): 1000 fold
Cc1oc2ncnc(SCC(=O)O)c2c1C [Compound 18] | 50 ± 14 nM | – | – | – | – | fold weaker Notum inhibition than 7 (Notum(81–451 Cys330Ser) [2]; relative to thiophene analogue 7): 10 fold
Cc1c(C(F)(F)F)oc2ncnc(SCC(=O)O)c12 [Compound 19] | 3.2 ± 0.5 nM | – | – | – | – | –
CN1CN(C(=O)CSc2ncnc3c(C4CC4)c(Cl)sc23)CC1=O [Compound 20] | – | 45 µL/min/mg | 5.9 ×10⁻⁶ cm/s | 12 ×10⁻⁶ cm/s | 2 | EC50 (Notum [6]): < 250 nM; EC50 (Notum [6]; [9]): 110 nM
Cc1sc2ncnc(SCC(=O)N3CC(=O)N(C)C3)c2c1C [Compound 21] | 9.4 ± 1.5 nM | 31 µL/min/mg | 21 ×10⁻⁶ cm/s | 45 ×10⁻⁶ cm/s | 2.1 | Activation of Wnt signaling (in words) (Notum [6]; TCF/LEF reporter, rWNT3a 100 ng/mL, Notum 500 ng/mL): only modest activation of Wnt signaling; EC50 (Notum [6]; [9]): 1300 nM
Cc1c(C(F)(F)F)sc2ncnc(SCC(=O)N3CC(=O)N(C)C3)c12 [Compound 22] | 1.6 ± 0.1 nM | 27 µL/min/mg | 31 ×10⁻⁶ cm/s | 35 ×10⁻⁶ cm/s | 1.1 | EC50 (Notum [6]; [9]): 210 nM
Cc1sc2ncnc(SCC(=O)N3CC(=O)N(C)C3)c2c1C(F)(F)F [Compound 23] | 7 ± 2.5 nM | 24 µL/min/mg | – | – | – | EC50 (Notum [6]; [9]): 170 nM
